In patent US20240116985A1, “STAPLED PEPTIDES AND METHODS THEREOF” (priority 2020, published 2024):
Read-outs that look alike come from different tables or passages of the source.

Experiments:
[1] = biological target: T1, beta-catenin/TCF4 engagement (Homo sapiens, UniProt P35222); assay: Nano-BRET target engagement assay (B-cat-Halo & TCF4-Luc in HEK293 cells); type: cell-based; details: read-out: NanoBRET Abs IC50
T1 construct: expressed in transfected cells; host or cells: HEK293
T1 sequence (P35222 1-781): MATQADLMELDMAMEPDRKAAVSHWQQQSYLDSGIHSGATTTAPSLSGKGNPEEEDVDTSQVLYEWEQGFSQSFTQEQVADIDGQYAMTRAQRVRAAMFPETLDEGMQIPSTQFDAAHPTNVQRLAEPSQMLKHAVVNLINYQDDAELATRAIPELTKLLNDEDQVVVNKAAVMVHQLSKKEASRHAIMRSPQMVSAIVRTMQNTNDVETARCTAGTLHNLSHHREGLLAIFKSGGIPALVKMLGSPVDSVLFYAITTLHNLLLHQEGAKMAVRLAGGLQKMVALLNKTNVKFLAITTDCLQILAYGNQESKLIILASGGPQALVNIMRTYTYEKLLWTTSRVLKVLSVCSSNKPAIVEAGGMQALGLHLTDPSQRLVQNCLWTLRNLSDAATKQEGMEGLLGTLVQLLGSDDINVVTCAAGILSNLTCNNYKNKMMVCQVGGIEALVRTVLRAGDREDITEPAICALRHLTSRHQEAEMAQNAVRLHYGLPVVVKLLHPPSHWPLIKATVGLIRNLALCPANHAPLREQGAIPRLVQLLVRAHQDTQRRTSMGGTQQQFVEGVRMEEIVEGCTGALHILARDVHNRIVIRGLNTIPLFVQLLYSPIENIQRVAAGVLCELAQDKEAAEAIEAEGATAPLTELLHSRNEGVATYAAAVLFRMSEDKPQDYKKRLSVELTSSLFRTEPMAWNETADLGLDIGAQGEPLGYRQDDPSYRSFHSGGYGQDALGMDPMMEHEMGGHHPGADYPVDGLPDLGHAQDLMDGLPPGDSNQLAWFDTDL

[2] = biological target: T2, full-length beta-Catenin (Uniprot ID P35222) (Homo sapiens, UniProt P35222); assay: Fluorescence polarization IC50 (beta-catenin / 5FAM-TCF4 10-53 competition); type: binding; details: fluorescence polarization; read-out: beta-Catenin FP IC50
T2 construct: 10 nM full-length beta-Catenin (Uniprot ID P35222)
T2 sequence (P35222 1-781): T1 sequence (P35222 1-781)

| Structure (SMILES) | IC50 [1] | IC50 [2] | IC50 ([1]; absolute IC50) |
| --- | --- | --- | --- |
| CC(=O)N1CCC[C@]12CC=CCCCC1(CCCC=CCCCOC(=O)N3CC[C@@](C(=O)N[C@@H](Cc4ccccc4Cl)C(=O)N[C@@H](Cc4csc5ccccc45)C(=O)N[C@@H](C)C(N)=O)(C3)NC(=O)[C@H](CC(C)C)NC(=O)[C@H](Cc3ccccc3)NC(=O)[C@H](C)NC(=O)[C@H](C)NC(=O)[C@H](Cc3cccc(C(=O)O)c3)NC(=O)[C@H](CC(=O)O)NC1=O)NC(=O)[C@H](CC(C)(C)C)NC(=O)[C@H](CC(=O)O)NC2=O (stereo partly drawn) [I-1851, Ac-PL3-Asp-Npg-B5-Asp-3COOHF-Ala-Ala-Phe-Leu-PyrS2-2C1F-BztA-Ala-NH2] | 3.8 µM | 0.025 µM | – |
| CC(=O)N1CCC[C@]12CC=CCCCC1(CCCC=CCCCOC(=O)N3CC[C@@](C(=O)N[C@@H](Cc4ccsc4)C(=O)N[C@@H](Cc4csc5ccccc45)C(=O)N[C@@H](CCC(N)=O)C(N)=O)(C3)NC(=O)[C@H](CC(N)=O)NC(=O)[C@H](Cc3ccccc3)NC(=O)[C@H](C)NC(=O)[C@H](C)NC(=O)[C@H](CNCC(=O)O)NC(=O)[C@H](CC(=O)O)NC1=O)NC(=O)[C@H](CC(C)(C)C)NC(=O)[C@H](CC(=O)O)NC2=O (stereo partly drawn) [I-1733, Ac-PL3-Asp-Npg-B5-Asp-GA-Ala-Ala-Phe-Asn-PyrS2-3Thi-BztA-Gln-NH2] | – | 0.015 µM | > 20 µM |
| CC(=O)N1CCC[C@]12CC=CCCCC1(CCCC=CCCCOC(=O)N3CC[C@@](C(=O)N[C@@H](Cc4ccsc4)C(=O)N[C@@H](Cc4csc5ccccc45)C(=O)N[C@@H](CC(N)=O)C(=O)N[C@@H](C)C(=O)N[C@@H](CC(C)C)C(=O)N[C@@H](CC(C)C)C(N)=O)(C3)NC(=O)[C@H](CC(C)C)NC(=O)[C@H](Cc3ccccc3)NC(=O)[C@H](C)NC(=O)[C@H](C)NC(=O)[C@H](Cc3cccc(C(=O)O)c3)NC(=O)[C@H](CC(=O)O)NC1=O)NC(=O)[C@H](CC(C)(C)C)NC(=O)[C@H](CC(=O)O)NC2=O (stereo partly drawn) [I-2278, Ac-PL3-Asp-Npg-B5-Asp-3COOHF-Ala-Ala-Phe-Leu-PyrS2-3Thi-BztA-Asn-Ala-Leu-Leu-NH2] | – | 0.12 µM | 2.8 µM |
| CC(=O)N1CCC[C@]12CC=CCCCC1(CCCC=CCCCOC(=O)N3CC[C@@](C(=O)N[C@@H](Cc4ccccc4C(F)(F)F)C(=O)N[C@@H](Cc4csc5ccccc45)C(=O)N[C@@H](CCC(N)=O)C(N)=O)(C3)NC(=O)[C@H](CC(C)C)NC(=O)[C@H](Cc3ccccc3)NC(=O)[C@H](C)NC(=O)[C@H](C)NC(=O)[C@H](CN(CC(=O)O)CC(F)(F)F)NC(=O)[C@H](CC(=O)O)NC1=O)NC(=O)[C@H](CC(C)(C)C)NC(=O)[C@H](CC(=O)O)NC2=O (stereo partly drawn) [I-1704, Ac-PL3-Asp-Npg-B5-Asp-TfeGA-Ala-Ala-Phe-Leu-PyrS2-2F3MeF-BztA-Gln-NH2] | – | 0.037 µM | 5.3 µM |
| CC(=O)N1CCC[C@]12CC=CCCCC1(CCCC=CCCCCCC[C@@](C)(C(=O)N[C@@H](Cc3ccccc3)C(=O)N[C@@H](Cc3csc4ccccc34)C(=O)N[C@@H](CCC(N)=O)C(N)=O)NC(=O)[C@H](CCO)NC(=O)[C@H](Cc3ccccc3)NC(=O)[C@H](C)NC(=O)[C@H](C)NC(=O)[C@H](CCC(=O)O)NC(=O)[C@H](CC(=O)O)NC1=O)NC(=O)[C@H](Cc1ccccc1)NC(=O)[C@H](CC(=O)O)NC2=O (stereo partly drawn) [I-1551, Ac-PL3-Asp-Phe-B5-Asp-Glu-Ala-Ala-Phe-Hse-S8-Phe-BztA-Gln-NH2] | – | 0.016 µM | 19.8 µM |
| CNC(=O)CC[C@@H]1NC(=O)[C@H](CCC(N)=O)NC(=O)[C@H](CC(=O)O)NC(=O)C2(CCCC=CCCCOC(=O)N3CC[C@@](C(=O)N[C@@H](Cc4ccccc4)C(=O)N[C@@H](Cc4csc5ccccc45)C(=O)N[C@@H](CC(=O)N4CCOCC4)C(N)=O)(C3)NC(=O)[C@H](CC(C)C)NC(=O)[C@H](Cc3ccccc3)NC(=O)[C@H](C)NC1=O)CCCC=CC[C@]1(CCCN1C(C)=O)C(=O)N[C@@H](CC(N)=O)C(=O)N[C@@H](CC1CCCCC1)C(=O)N2 (stereo partly drawn) [I-2502, Ac-PL3-Asn-Cha-B5-Asp-Gln-MeGln-Ala-Phe-Leu-PyrS2-Phe-BztA-MorphAsn-NH2] | – | 0.214 µM | > 20 µM |
| CC(=O)N1CCC[C@]12CC=CCCCC1(CCCC=CCCCOC(=O)N3CC[C@@](C(=O)N[C@@H](Cc4ccsc4)C(=O)N[C@@H](Cc4csc5ccccc45)C(=O)N[C@@H](CCC(N)=O)C(N)=O)(C3)NC(=O)[C@H](CC(C)C)NC(=O)[C@H](Cc3ccccc3)NC(=O)[C@H](C)NC(=O)[C@H](C)NC(=O)[C@H](CN(CC(=O)O)C(=O)Cc3c(F)c(F)c(F)c(F)c3F)NC(=O)[C@H](CC(=O)O)NC1=O)NC(=O)[C@H](CC(C)(C)C)NC(=O)[C@H](CC(=O)O)NC2=O (stereo partly drawn) [I-2241, Ac-PL3-Asp-Npg-B5-Asp-[PfPhAc]GA-Ala-Ala-Phe-Leu-PyrS2-3Thi-BztA-Gln-NH2] | – | 0.018 µM | 17.7 µM |
| CC(=O)N1CCC[C@]12CC=CCCCC1(CCCC=CCCCOC(=O)N3CC[C@@](C(=O)N[C@@H](Cc4ccccc4)C(=O)N[C@@H](Cc4csc5ccccc45)C(=O)N[C@@H](CCC(N)=O)C(N)=O)(C3)NC(=O)[C@H](CC(C)C)NC(=O)[C@H](Cc3ccccc3)NC(=O)[C@H](C)NC(=O)[C@H](CCO)NC(=O)[C@H](CCC(N)=O)NC(=O)[C@H](CC(=O)O)NC1=O)NC(=O)[C@H](CC1CCCCC1)NC(=O)[C@H](CC(N)=O)NC2=O (stereo partly drawn) [I-2354, Ac-PL3-Asn-Cha-B5-Asp-Gln-Hse-Ala-Phe-Leu-PyrS2-Phe-BztA-Gln-NH2] | – | 0.1 µM | > 20 µM |
| CC(=O)N1CCC[C@]12CC=CCCCC1(CCCC=CCCCOC(=O)N3CC[C@@](C(=O)N[C@@H](Cc4ccccc4C(F)(F)F)C(=O)N[C@@H](Cc4c(C(F)(F)F)[nH]c5ccccc45)C(=O)N[C@@H](C)C(N)=O)(C3)NC(=O)[C@H](CC(C)C)NC(=O)[C@H](Cc3ccccc3)NC(=O)[C@H](C)NC(=O)[C@H](CCC(N)=O)NC(=O)[C@H](Cc3cccc(C(=O)O)c3)NC(=O)[C@H](CC(=O)O)NC1=O)NC(=O)[C@H](CC(C)(C)C)NC(=O)[C@H](CC(=O)O)NC2=O (stereo partly drawn) [I-2485, Ac-PL3-Asp-Npg-B5-Asp-3COOHF-Gln-Ala-Phe-Leu-PyrS2-2F3MeF-2F3MeW-Ala-NH2] | – | 4.75 µM | > 20 µM |

Now those with a lower IC50 [2], led by results:

| IC50 [1] | IC50 [2] | IC50 ([1]; absolute IC50) | Structure (SMILES) |
| --- | --- | --- | --- |
| – | 0.013 µM | 3.5 µM | CC(=O)N1CCC[C@]12CC=CCCCC1(CCCC=CCCCOC(=O)N3CC[C@@](C(=O)N[C@@H](Cc4ccccc4C(F)(F)F)C(=O)N[C@@H](Cc4csc5ccccc45)C(=O)N[C@@H](CCC(=O)N4CCOCC4)C(N)=O)(C3)NC(=O)[C@H](CCC(=O)N3CCOCC3)NC(=O)[C@H](Cc3ccccc3)NC(=O)[C@H](C)NC(=O)[C@H](C)NC(=O)[C@H](Cc3cccc(C(=O)O)c3)NC(=O)[C@H](CC(=O)O)NC1=O)NC(=O)[C@H](CC(C)(C)C)NC(=O)[C@H](CC(=O)O)NC2=O (stereo partly drawn) [I-2547, Ac-PL3-Asp-Npg-B5-Asp-3COOHF-Ala-Ala-Phe-MorphGln-PyrS2-2F3MeF-BztA-MorphGln-NH2] |
| 16.4 µM | 0.012 µM | – | CC(=O)N1CCC[C@]12CC=CCCCC1(CCCC=CCCCOC(=O)N3CC[C@@](C(=O)N[C@@H](Cc4ccsc4)C(=O)N[C@@H](Cc4csc5ccccc45)C(=O)N[C@@H](CCC(N)=O)C(N)=O)(C3)NC(=O)[C@H](CC(C)C)NC(=O)[C@H](Cc3ccccc3)NC(=O)[C@H](C)NC(=O)[C@H](C)NC(=O)[C@H](Cn3cc(-c4ccccc4C(=O)O)nn3)NC(=O)[C@H](CC(=O)O)NC1=O)NC(=O)[C@H](CC(C)(C)C)NC(=O)[C@H](CC(=O)O)NC2=O (stereo partly drawn) [I-2086, Ac-PL3-Asp-Npg-B5-Asp-[2COOHPh]TriAzDap-Ala-Ala-Phe-Leu-PyrS2-3Thi-BztA-Gln-NH2] |
| 4.4 µM | 0.01 µM | – | CC(=O)N1CCC[C@]12CC=CCCCC1(CCCC=CCCCOC(=O)N3CC[C@@](C(=O)N[C@@H](Cc4ccsc4)C(=O)N[C@@H](Cc4csc5ccccc45)C(=O)N[C@H](CCC(N)=O)C(N)=O)(C3)NC(=O)[C@H](CC(C)C)NC(=O)[C@H](Cc3ccccc3)NC(=O)[C@H](C)NC(=O)[C@H](C)NC(=O)[C@H](Cc3cccc(C(=O)O)c3)NC(=O)[C@H](CC(=O)O)NC1=O)NC(=O)[C@H](CC(C)(C)C)NC(=O)[C@H](CC(=O)O)NC2=O (stereo partly drawn) [I-2088, Ac-PL3-Asp-Npg-B5-Asp-3COOHF-Ala-Ala-Phe-Leu-PyrS2-3Thi-BztA-dGln-NH2] |
| – | 0.005 µM | 7.2 µM | CC[C@@H]1NC(=O)[C@H](Cc2ccccc2)NC(=O)[C@H](C)NC(=O)C(C)(C)NC(=O)[C@H](Cc2cccc(C(=O)O)c2)NC(=O)[C@H](CC(=O)O)NC(=O)C2(CCCC=CCCCOC(=O)N3CC[C@@](C(=O)N[C@@H](Cc4ccsc4)C(=O)N[C@@H](Cc4csc5ccccc45)C(=O)N[C@@H](CCC(=O)N4CCN(C(C)=O)CC4)C(N)=O)(C3)NC1=O)CCCC=CC[C@]1(CCCN1C(C)=O)C(=O)N[C@@H](CC(=O)O)C(=O)N[C@@H](CC(C)(C)C)C(=O)N2 (stereo partly drawn) [I-2561, Ac-PL3-Asp-Npg-B5-Asp-3COOHF-Aib-Ala-Phe-Abu-PyrS2-3Thi-BztA-[AcPpz]GlnR-NH2] |
